As a reminder, the IC50 is the concentration at which inhibition is half-maximal.

One series addresses T1, human GSK3β enzyme (Homo sapiens, UniProt P49841).
T1 construct: His6 (N); purchased Millipore 14-306; host or cells: baculovirus / Sf21 insect cells
The series can be described thus: In vitro GSK3β kinase assay (FRET, Z'-LYTE), Test (a). It is filed as biochemical. Particulars: read-out: IC50 versus human GSK3β enzyme. The source says:
This biochemical assay used a Fluorescence Resonance Energy Transfer (FRET)-based, coupled-enzyme format to determine the ability of test compounds to inhibit substrate phosphorylation by recombinant GSK3β serine/threonine kinase (Kleman-Leyer, K. et al. Drug Disc. Devel. 2003, 6:81-2). The substrate used in this assay was Z′-LYTE™ ser/Thr 9 peptide and the FRET assay kit was obtained from Invitrogen (Paisley, UK, catalogue number PV3324). N-terminal His6-tagged recombinant human GSK313, with an H350 L mutation, was expressed in baculovirus in Sf21 insect cells, purified and obtained from Millipore (Billerica, Mass., USA, catalogue number 14-306 Human).
Test compounds were prepared as 10 mM stock solutions in dimethylsulphoxide (DMSO) and diluted in DMSO as required. Aliquots (2.5 μl) of compound dilutions were added to the wells of an Optiplate-F PerkinElmer 384-well plate (Massachusetts, USA, catalogue number 6007270). Control wells that produced a maximum signal corresponding to maximum enzyme activity were created by using 100% phosphorylated peptide obtained from Invitrogen (Paisley, UK, catalogue number PV3326). A 5 μl aliquot of 100% phosphorylated peptide (100 μM in 1.33× kinase buffer) was added to all maximum control wells. 2.5 μl of 4% DMSO solution (v/v) in 1.33× kinase buffer was added to maximum control wells. Control wells that produced a minimum signal corresponding to 100% inhibited enzyme were created by adding 2.5 μl of 40 μM Staurosporine in 1.33× kinase buffer containing 4% DMSO (v/v). A 5 μl mixture of GSK3β (100 ng/μl) enzyme and non-phosphorylated substrate (Z-LYTE™ ser/Thr 9 peptide, 100 μM) in a 1.33× kinase buffer solution was added to each well except maximum control wells and the assay plate centrifuged at 270 g for 1 minute. The kinase buffer used 1.33× was obtained from Invitrogen (Paisley, UK, catalogue number PV3189) and contained 67 mM HEPES (pH 7.5), 13 mM MgCl2, 1.3 mM EGTA, 0.01% BRIJ-35. Then 2.5 μl adenosine triphosphate (28 μM) in kinase buffer was added per well, centrifuged at 270 g for 1 minute and then the assay plate was shaken for 1 hour at room temperature. A proprietary development solution was prepared by adding 58 μl of development reagent A (Invitrogen, Paisley, UK, catalogue number PV3297) to 2142 μl of development reagent B (Invitrogen, Paisley, UK, catalogue number P3127). […]
The resultant signals arising from laser light excitation at 400 nm were read using a Perkin Elmer Envision spectrophotometer (Perkin Elmer, Massachusetts, USA). […] A ratiometric method, which calculates the ratio (the Emission Ratio) of donor emission to acceptor emission after excitation of the donor fluorophore at 400 nm, quantitates reaction progress, as shown in the equation below. […]

Series [1] deals with β-catenin accumulation in the nucleus of murine C3H/10T1/2 cells. Kind of series: Cellular beta-catenin stabilisation assay, Test (b). In kind it is cell-based. Particulars: Mus musculus, 24 hours, read-out: EC50 versus cellular β-catenin accumulation in the nucleus of murine C3H/10T1/2 cells. How it is done:
This assay uses an imaging based approach to measure the ability of test compounds to promote Beta-catenin stabilisation in the nucleus of C3H10T1/2 cells. Beta-catenin stabilisation is an indicator of GSK3β inhibition.
A C3H10T1/2 mouse clone 8 fibroblast cell line (American Type Culture Collection (ATCC, USA; catalogue number CRL 226) was routinely maintained at 37° C. with 5% CO2 in Basal Medium Eagle (BME, Invitrogen; Paisley, UK; catalogue number 41010) containing 10% (v/v) foetal bovine serum (FBS, Invitrogen, Paisley; UK; catalogue number 10270) and 2 mM L-glutamine (Invitrogen, Paisley, UK; catalogue number 25030024). For the assay, the cells were detached from the culture flask with ‘Accutase’ (Innovative Cell Technologies Inc., San Diego, USA; catalogue number AT104) using standard tissue culture methods and re-suspended in assay media comprising of BME containing 5% (v/v) FBS and 2 mM L-glutamine to give 55,555 cells per ml. Then, 90 μl of this solution was seeded into each well of a clear-bottom 96 well tissue culture plate (Perkin Elmer Viewplate; catalogue number 6005182) using a Multidrop Combi Dispenser (Thermo Fisher Scientific, Loughborough, UK) to give 5,000 cells per well. Plates were incubated overnight at 37° C. with 5% CO2 to allow the cells to adhere to the wells. Test compounds were prepared as 10 mM stock solutions in dimethylsulphoxide (DMSO) (Sigma-Aldrich; Poole, UK, catalogue number 49442-9) and serially diluted in DMSO. A Multidrop Combi was used to dispense 245 μl of pre-warmed assay media into a 96 well plate (Thermo Fisher Scientific, Loughborough, UK; catalogue number 50823925) before 5 μl of serially diluted compound was added to this intermediate plate. After mixing, 10 μl of each compound concentration was added to the cell plates. The total dilution factor from DMSO stock was 500 times. Control cells received either DMSO (0.2% v/v final concentration) or 10 μM positive control compound. The cells were incubated for 24 hours at 37° C. with 5% CO2.
After compound treatment the cells were fixed by the addition of 100 μl of 8% w/v paraformaldehyde (Sigma-Aldrich, Poole, UK; catalogue number P6148), directly into the assay plate wells. The cells were incubated at ambient temperature with fixative for 30 minutes before washing 3 times with 100 μl phosphate-buffered saline (PBS, Sigma-Aldrich; catalogue number D8537). […] The cells were then washed 3 times in 100 μl of PBS before the plates were sealed ready for image capture. Fluorescent images were captured and quantified using the Incell Analyser 3000 (GE Healthcare, USA). […]

For another series, the system named is rat bone marrow. The method, then:
3-amino-6-(4-{3-[(3-methoxypropyl)amino]propyl}phenyl)-N-pyridin-3-ylpyrazine-2-carboxamide mono-besylate was also tested in an in vivo rat genotoxicity micronucleus study. The objective of this study was to investigate whether two oral doses of 3-amino-6-(4-{3-[(3-methoxypropyl)amino]propyl}phenyl)-N-pyridin-3-ylpyrazine-2-carboxamide mono-besylate increased the frequency of micronucleated immature erythrocytes (MIE) in rat bone marrow.
3-amino-6-(4-{3-[(3-methoxypropyl)amino]propyl}phenyl)-N-pyridin-3-ylpyrazine-2-carboxamide mono-besylate was administered to groups of 7 male Wistar Han rats, approximately 10 weeks old at dosing. Groups were given two doses of 0, 25, 125 and 250 mg/kg free-base equivalent (0, 59.5, 297 and 595 umol/kg) 24 hours apart and sampled for bone marrow analysis 24 hours after the second dose. Control rats were dosed with vehicle, 0.5% w/v hydroxypropyl methylcellulose and 0.1% w/v polysorbate 80 in phosphate buffered saline.
Animals were sacrificed 24 hours after the second dose and bone marrow smears prepared, fixed and stained with acridine orange. For each animal, 2000 immature erythrocytes (IE) were scored for the incidence of micronucleated cells (MIE) and the ratio of IE to mature erythrocytes (E) was determined in 1000 cells. In order to act as a quality control procedure, 6 slides from the bone-marrow of rats treated with cyclophosphamide at 20 mg/kg (72 umol/kg) in a previous study were included with the slides from the treated animals prior to staining and coding.

The structures appear in SMILES notation. Counter-ions that a name gives are not always drawn.

T1 sequence (P49841 whole entry): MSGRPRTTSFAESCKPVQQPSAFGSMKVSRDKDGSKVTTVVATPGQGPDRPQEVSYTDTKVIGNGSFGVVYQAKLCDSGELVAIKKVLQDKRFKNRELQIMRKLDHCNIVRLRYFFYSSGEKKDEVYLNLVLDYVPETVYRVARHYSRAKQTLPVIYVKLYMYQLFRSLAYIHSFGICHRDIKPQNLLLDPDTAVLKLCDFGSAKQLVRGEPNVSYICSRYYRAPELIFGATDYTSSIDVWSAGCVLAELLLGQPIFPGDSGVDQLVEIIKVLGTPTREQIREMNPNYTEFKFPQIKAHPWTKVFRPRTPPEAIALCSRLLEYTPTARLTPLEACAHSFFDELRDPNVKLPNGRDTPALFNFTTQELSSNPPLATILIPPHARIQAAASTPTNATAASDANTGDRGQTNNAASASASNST

Regarding `COCCNCCc1ccc(-c2cnc(N)c(C(=O)Nc3cccnc3)n2)cc1` [Example 7, 3-Amino-6-(4-{2-[(2-methoxyethyl)amino]ethyl}phenyl)-N-pyridin-3-ylpyrazine-2-carboxamide tri-hydrochloride], on human GSK3β enzyme, the 50% inhibitory concentration (IC50) is around 80 nM. The EC50 in series [1] is around 3890 nM. Consider `COCCCNCCCc1ccc(-c2cnc(N)c(C(=O)Nc3cccnc3)n2)cc1.O=S(=O)(O)c1ccccc1` [3-amino-6-(4-{3-[(3-methoxypropyl)amino]propyl}phenyl)-N-pyridin-3-ylpyrazine-2-carboxamide mono-besylate], for which the “Maximum tolerated dose (highest dose)” value in the series with rat bone marrow (two oral doses 24 hours apart, male Wistar Han rats) was 250 mg/kg free-base equivalent. Besides, the “Incidence of micronucleated immature erythrocytes (MIE) above the vehicle control” value in the series with rat bone marrow (two oral doses up to 250 mg/kg free-base equivalent 24 hours apart, bone marrow 24 hours after second dose) is given as “no biologically or statistically significant increases”. As for `COCCNCCCc1ccc(-c2cnc(N)c(C(=O)Nc3cccnc3)n2)cc1` [Example 5, 3-Amino-6-(4-{3-[(2-methoxyethyl)amino]propyl}phenyl)-N-pyridin-3-ylpyrazine-2-carboxamide tri-hydrochloride], the IC50 at human GSK3β enzyme is around 21 nM. For the same compound, the EC50 in series [1] is around 902 nM. For the compound `O=P1(N(CCCl)CCCl)NCCCO1` (stereo not drawn) [cyclophosphamide, reference compound], the “Incidence of MIE compared with the vehicle control values” with rat bone marrow (quality control slides, rats given 20 mg/kg in a previous study) is on record as “significantly increased”. With `COCCCNCCc1ccc(-c2cnc(N)c(C(=O)Nc3cccnc3)n2)cc1` [Example 6, 3-Amino-6-(4-{2-[(3-methoxypropyl)amino]ethyl}phenyl)-N-pyridin-3-ylpyrazine-2-carboxamide], at human GSK3β enzyme, the IC50 was around 48 nM. For the same compound, in series [1], the EC50 was around 902 nM.

These data come from patent US8198285B2, “Pyrazine derivatives” (Astrazeneca AB, priority 2010, dated 2012).
